Columns and labels:
[1] = Karnofsky Performance Status, Phase I study; format: in vivo, human; conditions: for Karnofsky Performance Status, Change from Baseline, Mean / Karnofsky Performance Status, Change from Baseline, Median / Karnofsky Performance Status, Observed Values, Mean / Karnofsky Performance Status, Observed Values, Median: ITT
Source text: The present patient population was clinically deteriorating rapidly with four of the fifteen patients not meeting the protocol inclusion criteria and being granted exemptions (page 15-18). An amendment to the protocol had to be sought because Karnofsky Performance Status of some patients dropped between the screening date and the first pre-infusion date. Considering the clinical status of the present patient population at the start of the trial along with Karnofsky Performance Score being a surrogate end-point for Quality of Life in advanced, refractory, terminal cancers, these findings support claims reciting benefits to quality of life by claimed treatment in a human host in need thereof.

[2] = ATP pharmacokinetics: total blood (red blood cell) ATP level, Phase I study, 8 hour intravenous infusion; format: in vivo, human
Description: The solution was administered by continuous intravenous infusions using an Ivac or similar infusion device through venous access in a peripheral vein. If venous access was a problem, either a Hickman catheter or its equivalent, or an Infusaport or its equivalent was inserted to provide vascular access.
The 50 μg/kg/min dose could be reduced to 25 μg/kg/min if adverse effects occurred. […] Succeeding infusions in that patient were at the infusion dose tolerated at the end of the previous treatment. If adverse events occurred in patients being infused at 25 μg/kg/min, the infusions were terminated and the patient received no additional infusions.

[3] = Week 1 (Infusion 1), baseline, N=15
[4] = Week 1 (infusion 1), 4 hours into infusion
[5] = Week 1 (infusion 1), 8 hours (before the end)
[6] = Week 1 (infusion 1), 8.25 hours
[7] = Week 1 (infusion 1), Time 0 (pre-infusion)
[8] = Week 3 (Infusion 3), 4 hours into infusion
[9] = Week 3 (Infusion 3), 8 hours before the end
[10] = Week 3 (Infusion 3), Time 0 (pre-infusion)
[11] = Week 8 (infusion 8), 4 hours into infusion
[12] = Week 8 (infusion 8), 8 hours (before the end)
[13] = Week 8 (infusion 8), Time 0 (pre-infusion)

Nc1ncnc2c1ncn2[C@@H]1O[C@H](COP(=O)(O)OP(=O)(O)OP(=O)(O)O)[C@@H](O)[C@H]1O [ATP, adenosine 5′-triphosphate]
Karnofsky Performance Status ([1]; ITT patient population): stabilize
Karnofsky Performance Status, Change from Baseline, Mean [1, 3]: 0.0%
Karnofsky Performance Status, Change from Baseline, Median [1, 3]: 0.0%
Karnofsky Performance Status, Observed Values, Mean [1, 3]: 78.0%
Karnofsky Performance Status, Observed Values, Median [1, 3]: 80.00%
Karnofsky Performance Status, Change from Baseline, Mean ([1]; Week 2 (Infusion 2), N=14): −2.1%
Karnofsky Performance Status, Change from Baseline, Median ([1]; Week 2 (Infusion 2), N=14): 0.0%
Karnofsky Performance Status, Observed Values, Mean ([1]; Week 2 (Infusion 2), N=14): 77.1%
Karnofsky Performance Status, Observed Values, Median ([1]; Week 2 (Infusion 2), N=14): 75.0%
Karnofsky Performance Status, Change from Baseline, Mean ([1]; Week 3 (Infusion 3), N=13): −2.3%
Karnofsky Performance Status, Change from Baseline, Median ([1]; Week 3 (Infusion 3), N=13): 0.0%
Karnofsky Performance Status, Observed Values, Mean ([1]; Week 3 (Infusion 3), N=13): 76.9%
Karnofsky Performance Status, Observed Values, Median ([1]; Week 3 (Infusion 3), N=13): 80.0%
Karnofsky Performance Status, Change from Baseline, Mean ([1]; Week 4 (Infusion 4), N=11): −0.9%
Karnofsky Performance Status, Change from Baseline, Median ([1]; Week 4 (Infusion 4), N=11): 0.0%
Karnofsky Performance Status, Observed Values, Mean ([1]; Week 4 (Infusion 4), N=11): 78.2%
Karnofsky Performance Status, Observed Values, Median ([1]; Week 4 (Infusion 4), N=11): 80.0%
Karnofsky Performance Status, Change from Baseline, Mean ([1]; Week 5 (Infusion 5), N=10): −7.0%
Karnofsky Performance Status, Change from Baseline, Median ([1]; Week 5 (Infusion 5), N=10): 0.0%
Karnofsky Performance Status, Observed Values, Mean ([1]; Week 5 (Infusion 5), N=10): 71.0%
Karnofsky Performance Status, Observed Values, Median ([1]; Week 5 (Infusion 5), N=10): 75.0%
Karnofsky Performance Status, Change from Baseline, Mean ([1]; Week 6 (Infusion 6), N=9): −4.4%
Karnofsky Performance Status, Change from Baseline, Median ([1]; Week 6 (Infusion 6), N=9): 0.0%
Karnofsky Performance Status, Observed Values, Mean ([1]; Week 6 (Infusion 6), N=9): 74.4%
Karnofsky Performance Status, Observed Values, Median ([1]; Week 6 (Infusion 6), N=9): 80.0%
Karnofsky Performance Status, Change from Baseline, Mean ([1]; Week 7 (Infusion 7), N=7): −4.3%
Karnofsky Performance Status, Change from Baseline, Median ([1]; Week 7 (Infusion 7), N=7): 0.0%
Karnofsky Performance Status, Observed Values, Mean ([1]; Week 7 (Infusion 7), N=7): 72.9%
Karnofsky Performance Status, Observed Values, Median ([1]; Week 7 (Infusion 7), N=7): 70.0%
Karnofsky Performance Status, Change from Baseline, Mean ([1]; Week 8 (Infusion 8), N=7): −5.7%
Karnofsky Performance Status, Change from Baseline, Median ([1]; Week 8 (Infusion 8), N=7): −10.0%
Karnofsky Performance Status, Observed Values, Mean ([1]; Week 8 (Infusion 8), N=7): 71.4%
Karnofsky Performance Status, Observed Values, Median ([1]; Week 8 (Infusion 8), N=7): 70.0%
Karnofsky Performance Status, Change from Baseline, Mean ([1]; Week 10 (Follow-up), N=6): −5.0%
Karnofsky Performance Status, Change from Baseline, Median ([1]; Week 10 (Follow-up), N=6): −5.0%
Karnofsky Performance Status, Observed Values, Mean ([1]; Week 10 (Follow-up), N=6): 73.3%
Karnofsky Performance Status, Observed Values, Median ([1]; Week 10 (Follow-up), N=6): 70.0%
Karnofsky Performance Status, Change from Baseline, Mean ([1]; Week 13 (Follow-up), N=5): −4.0%
Karnofsky Performance Status, Change from Baseline, Median ([1]; Week 13 (Follow-up), N=5): 0.0%
Karnofsky Performance Status, Observed Values, Mean ([1]; Week 13 (Follow-up), N=5): 76.0%
Karnofsky Performance Status, Observed Values, Median ([1]; Week 13 (Follow-up), N=5): 80.0%
Karnofsky Performance Status ([1]; patients 502-505, week 1 (pre-dose) to week 13 (follow-up)): Small increases
total blood (red blood cell) ATP levels ([2]; ATP continuously for eight hours): increases
ATP Level Mean [2, 4]: 0.808 mM
ATP Level Median [2, 4]: 0.745 mM
ATP Level Mean [2, 5]: 0.896 mM
ATP Level Median [2, 5]: 0.770 mM
ATP Level Mean [2, 6]: 0.860 mM
ATP Level Median [2, 6]: 0.860 mM
ATP Level Mean ([2]; Week 1 (infusion 1), 9 hours): 0.912 mM
ATP Level Median ([2]; Week 1 (infusion 1), 9 hours): 0.765 mM
ATP Level Mean ([2]; Week 1 (infusion 1), 10 hours): 0.826 mM
ATP Level Median ([2]; Week 1 (infusion 1), 10 hours): 0.735 mM
ATP Level Mean ([2]; Week 1 (infusion 1), 11 hours): 0.828 mM
ATP Level Median ([2]; Week 1 (infusion 1), 11 hours): 0.680 mM
ATP Level Mean ([2]; Week 1 (infusion 1), 12 hours): 0.845 mM
ATP Level Median ([2]; Week 1 (infusion 1), 12 hours): 0.690 mM
ATP Level Mean ([2]; Week 1 (infusion 1), 14 hours): 0.857 mM
ATP Level Median ([2]; Week 1 (infusion 1), 14 hours): 0.730 mM
ATP Level Mean ([2]; Week 1 (infusion 1), 16 hours): 0.905 mM
ATP Level Median ([2]; Week 1 (infusion 1), 16 hours): 0.755 mM
ATP Level Mean ([2]; Week 1 (infusion 1), 20 hours): 0.772 mM
ATP Level Median ([2]; Week 1 (infusion 1), 20 hours): 0.670 mM
ATP Level Mean ([2]; Week 1 (infusion 1), 24 hours): 0.715 mM
ATP Level Median ([2]; Week 1 (infusion 1), 24 hours): 0.620 mM
ATP Level Mean [2, 7]: 0.615 mM
ATP Level Median [2, 7]: 0.550 mM
ATP Level Mean ([2]; Week 1 (infusion 1), […]): 0.895 mM
ATP Level Median ([2]; Week 1 (infusion 1), […]): 0.810 mM
ATP Level Mean [2, 8]: 0.843 mM
ATP Level Median [2, 8]: 0.540 mM
ATP Level Mean [2, 9]: 0.955 mM
ATP Level Median [2, 9]: 0.770 mM
ATP Level Mean ([2]; Week 3 (Infusion 3), 9 hours): 0.908 mM
ATP Level Median ([2]; Week 3 (Infusion 3), 9 hours): 0.950 mM
ATP Level Mean ([2]; Week 3 (Infusion 3), 10 hours): 0.906 mM
ATP Level Median ([2]; Week 3 (Infusion 3), 10 hours): 1.000 mM
ATP Level Mean ([2]; Week 3 (Infusion 3), 11 hours): 0.885 mM
ATP Level Median ([2]; Week 3 (Infusion 3), 11 hours): 0.670 mM
ATP Level Mean ([2]; Week 3 (Infusion 3), 12 hours): 0.903 mM
ATP Level Median ([2]; Week 3 (Infusion 3), 12 hours): 0.820 mM
ATP Level Mean ([2]; Week 3 (Infusion 3), 14 hours): 0.853 mM
ATP Level Median ([2]; Week 3 (Infusion 3), 14 hours): 0.600 mM
ATP Level Mean ([2]; Week 3 (Infusion 3), 16 hours): 0.859 mM
ATP Level Median ([2]; Week 3 (Infusion 3), 16 hours): 0.740 mM
ATP Level Mean ([2]; Week 3 (Infusion 3), 20 hours): 0.851 mM
ATP Level Median ([2]; Week 3 (Infusion 3), 20 hours): 0.610 mM
ATP Level Mean ([2]; Week 3 (Infusion 3), 24 hours): 0.687 mM
ATP Level Median ([2]; Week 3 (Infusion 3), 24 hours): 0.580 mM
ATP Level Mean [2, 10]: 0.610 mM
ATP Level Median [2, 10]: 0.560 mM
ATP Level Mean ([2]; Week 3 (Infusion 3), […]): 0.989 mM
ATP Level Median ([2]; Week 3 (Infusion 3), […]): 0.960 mM
ATP Level Mean [2, 11]: 0.702 mM
ATP Level Median [2, 11]: 0.770 mM
ATP Level Mean [2, 12]: 0.826 mM
ATP Level Median [2, 12]: 0.890 mM
ATP Level Mean ([2]; Week 8 (infusion 8), 9 hours): 1.030 mM
ATP Level Median ([2]; Week 8 (infusion 8), 9 hours): 1.155 mM
ATP Level Mean ([2]; Week 8 (infusion 8), 10 hours): 0.963 mM
ATP Level Median ([2]; Week 8 (infusion 8), 10 hours): 1.080 mM
ATP Level Mean ([2]; Week 8 (infusion 8), 11 hours): 0.973 mM
ATP Level Median ([2]; Week 8 (infusion 8), 11 hours): 1.010 mM
ATP Level Mean ([2]; Week 8 (infusion 8), 12 hours): 0.925 mM
ATP Level Median ([2]; Week 8 (infusion 8), 12 hours): 1.050 mM
ATP Level Mean ([2]; Week 8 (infusion 8), 14 hours): 0.980 mM
ATP Level Median ([2]; Week 8 (infusion 8), 14 hours): 0.950 mM
ATP Level Mean ([2]; Week 8 (infusion 8), 16 hours): 0.894 mM
ATP Level Median ([2]; Week 8 (infusion 8), 16 hours): 0.700 mM
ATP Level Mean ([2]; Week 8 (infusion 8), 20 hours): 0.960 mM
ATP Level Median ([2]; Week 8 (infusion 8), 20 hours): 0.900 mM
ATP Level Mean ([2]; Week 8 (infusion 8), 24 hours): 0.708 mM
ATP Level Median ([2]; Week 8 (infusion 8), 24 hours): 0.750 mM
ATP Level Mean [2, 13]: 0.573 mM
ATP Level Median [2, 13]: 0.560 mM
ATP Level Mean ([2]; Week 8 (infusion 8), […]): 1.000 mM
ATP Level Median ([2]; Week 8 (infusion 8), […]): 0.980 mM
Increases in total blood ATP pools ([2]; patients 502-505, weeks 1, 3 and 8, time 0 to 8 hours (end of the infusions)): 70-90%
